Reference: article PMC8640094, “Diaportones A–C: Three New Metabolites From Endophytic Fungus Diaporthe foeniculina BZM-15” (Frontiers in Chemistry, 2021)
Several values for one entry are separate records, joined by “and”; a condition that tells them apart may be missing. Equal values may be shown once.

Columns and labels:
normal cell line LX-2 = experiment: MTT cytotoxicity assay, normal cell line LX-2; type: cell-based; conditions: for cell inhibition: listed as Comp.5
Experimental: (§1) The cytotoxicity of all compounds against three human tumor cell lines, SF-268 (CNS cancer), MCF-7 (breast cancer), and HepG2 (hepatoma cancer), and normal cell line LX-2 was tested using the MTT assay. […] All cells were seeded into 96-well plates at 5 × 10^4 cells/ml and incubated at 37°C under a 5% CO2 atmosphere for 24 h. Then, the tested compounds were added. After 72 h, MTT solution was added into each well, which was further incubated. The cell-free supernatant was removed and formazan crystals were subsequently dissolved in DMSO. Optical density (OD) was recorded at 490 nm on a microplate reader to calculate the IC50 values.

SF-268 (CNS cancer) = experiment: MTT cytotoxicity assay, SF-268 cells; type: cell-based, human; conditions: for cell inhibition: SF268 cells, listed as Comp.5
Experimental: (§2) The cytotoxicity of all compounds against three human tumor cell lines, SF-268 (CNS cancer), MCF-7 (breast cancer), and HepG2 (hepatoma cancer), and normal cell line LX-2 was tested using the MTT assay. Adriamycin was used as a positive control. All cells were seeded into 96-well plates at 5 × 10^4 cells/ml and incubated at 37°C under a 5% CO2 atmosphere for 24 h. Then, the tested compounds were added. After 72 h, MTT solution was added into each well, which was further incubated. The cell-free supernatant was removed and formazan crystals were subsequently dissolved in DMSO. Optical density (OD) was recorded at 490 nm on a microplate reader to calculate the IC50 values.

MCF-7 (breast cancer) = experiment: MTT cytotoxicity assay, MCF-7 cells; type: cell-based, human; conditions: for cell inhibition: listed as Comp.5
Experimental: as §1

HepG2 (hepatoma cancer) = experiment: MTT cytotoxicity assay, HepG2 cells; type: cell-based, human; conditions: for cell inhibition: listed as Comp.5
Experimental: as §2

[1] = LX-2, c 1.00 μM, three replicates
[2] = LX-2, c 2.00 μM, three replicates
[3] = LX-2, c 4.00 μM, three replicates
[4] = LX-2, c 8.00 μM, three replicates
[5] = LX-2, c 16.00 μM, three replicates
[6] = LX-2, c 32.00 μM, three replicates
[7] = LX-2, c 64.00 μM, three replicates
[8] = LX-2, c 128.00 μM, three replicates

CC(C)C12CC1C(C)(O)CC2=O (centres unmarked) [compound 5, diaportone C]
inhibition at 1 µM (normal cell line LX-2; [1]): 11.1%
cell inhibition (normal cell line LX-2; [1]): 11.45% and 12.45%
inhibition at 2 µM (normal cell line LX-2; [2]): 13.5%
cell inhibition (normal cell line LX-2; [2]): 13.52% and 12.56%
inhibition at 4 µM (normal cell line LX-2; [3]): 23.6%
cell inhibition (normal cell line LX-2; [3]): 24.13% and 24.41%
inhibition at 8 µM (normal cell line LX-2; [4]): 30.1%
cell inhibition (normal cell line LX-2; [4]): 32.44% and 30.6%
inhibition at 16 µM (normal cell line LX-2; [5]): 31.7%
cell inhibition (normal cell line LX-2; [5]): 33.08% and 32.3%
inhibition at 32 µM (normal cell line LX-2; [6]): 46.6%
cell inhibition (normal cell line LX-2; [6]): 43.56% and 46.07%
inhibition at 64 µM (normal cell line LX-2; [7]): 70.3%
cell inhibition (normal cell line LX-2; [7]): 71.68% and 70.2%
inhibition at 128 µM (normal cell line LX-2; [8]): 89.2%
cell inhibition (normal cell line LX-2; [8]): 89.22% and 90.45%
IC50 (normal cell line LX-2; MTT, 72 h, mean ± SD (n = 3)): > 40 µM
inhibition at 1 µM (SF-268 (CNS cancer); Homo sapiens, SF-268, SF268 cells, c 1.00 μM, triplicate values, read-out: cell inhibition): 6.47%
inhibition at 2 µM (SF-268 (CNS cancer); Homo sapiens, SF-268, SF268 cells, c 2.00 μM, triplicate values, read-out: cell inhibition): 15.7%
inhibition at 4 µM (SF-268 (CNS cancer); Homo sapiens, SF-268, SF268 cells, c 4.00 μM, triplicate values, read-out: cell inhibition): 22.9%
inhibition at 8 µM (SF-268 (CNS cancer); Homo sapiens, SF-268, SF268 cells, c 8.00 μM, triplicate values, read-out: cell inhibition): 22.1%
inhibition at 16 µM (SF-268 (CNS cancer); Homo sapiens, SF-268, SF268 cells, c 16.00 μM, triplicate values, read-out: cell inhibition): 27.1%
inhibition at 32 µM (SF-268 (CNS cancer); Homo sapiens, SF-268, SF268 cells, c 32.00 μM, triplicate values, read-out: cell inhibition): 31.9%
inhibition at 64 µM (SF-268 (CNS cancer); Homo sapiens, SF-268, SF268 cells, c 64.00 μM, triplicate values, read-out: cell inhibition): 67.2%
inhibition at 128 µM (SF-268 (CNS cancer); Homo sapiens, SF-268, SF268 cells, c 128.00 μM, triplicate values, read-out: cell inhibition): 72.8%
IC50 (SF-268 (CNS cancer); Homo sapiens, SF-268, MTT, 72 h, mean ± SD (n = 3), read-out: IC50 SF268): > 40 µM
cell inhibition (SF-268 (CNS cancer); c 1.00 μM, triplicate values): 6.8% and 6.81%
cell inhibition (SF-268 (CNS cancer); c 2.00 μM, triplicate values): 13.52% and 13.37%
cell inhibition (SF-268 (CNS cancer); c 4.00 μM, triplicate values): 23.4% and 24.41%
cell inhibition (SF-268 (CNS cancer); c 8.00 μM, triplicate values): 23.23% and 26.17%
cell inhibition (SF-268 (CNS cancer); c 16.00 μM, triplicate values): 25.97% and 27.9%
cell inhibition (SF-268 (CNS cancer); c 32.00 μM, triplicate values): 33.15% and 30.82%
cell inhibition (SF-268 (CNS cancer); c 64.00 μM, triplicate values): 67.13% and 67.17%
cell inhibition (SF-268 (CNS cancer); c 128.00 μM, triplicate values): 70.54% and 72.29%
inhibition at 1 µM (MCF-7 (breast cancer); Homo sapiens, MCF7, MCF-7, c 1.00 μM, three replicates, read-out: cell inhibition): 8.13%
inhibition at 2 µM (MCF-7 (breast cancer); Homo sapiens, MCF7, MCF-7, c 2.00 μM, three replicates, read-out: cell inhibition): 15.1%
inhibition at 4 µM (MCF-7 (breast cancer); Homo sapiens, MCF7, MCF-7, c 4.00 μM, three replicates, read-out: cell inhibition): 21.1%
inhibition at 8 µM (MCF-7 (breast cancer); Homo sapiens, MCF7, MCF-7, c 8.00 μM, three replicates, read-out: cell inhibition): 28.2%
inhibition at 16 µM (MCF-7 (breast cancer); Homo sapiens, MCF7, MCF-7, c 16.00 μM, three replicates, read-out: cell inhibition): 33.4%
inhibition at 32 µM (MCF-7 (breast cancer); Homo sapiens, MCF7, MCF-7, c 32.00 μM, three replicates, read-out: cell inhibition): 41.7%
inhibition at 64 µM (MCF-7 (breast cancer); Homo sapiens, MCF7, MCF-7, c 64.00 μM, three replicates, read-out: cell inhibition): 54.1%
inhibition at 128 µM (MCF-7 (breast cancer); Homo sapiens, MCF7, MCF-7, c 128.00 μM, three replicates, read-out: cell inhibition): 70.1%
IC50 (MCF-7 (breast cancer); Homo sapiens, MCF7, MTT, 72 h, mean ± SD (n = 3)): > 40 µM
cell inhibition (MCF-7 (breast cancer); MCF-7, c 1.00 μM, three replicates): 8.16% and 9.09%
cell inhibition (MCF-7 (breast cancer); MCF-7, c 2.00 μM, three replicates): 16.13% and 15.25%
cell inhibition (MCF-7 (breast cancer); MCF-7, c 4.00 μM, three replicates): 22.04% and 21.31%
cell inhibition (MCF-7 (breast cancer); MCF-7, c 8.00 μM, three replicates): 28.45% and 29.1%
cell inhibition (MCF-7 (breast cancer); MCF-7, c 16.00 μM, three replicates): 33.57% and 33.06%
cell inhibition (MCF-7 (breast cancer); MCF-7, c 32.00 μM, three replicates): 42.15% and 41.31%
cell inhibition (MCF-7 (breast cancer); MCF-7, c 64.00 μM, three replicates): 53.35% and 53.16%
cell inhibition (MCF-7 (breast cancer); MCF-7, c 128.00 μM, three replicates): 71.36% and 73.18%
cell inhibition (HepG2 (hepatoma cancer); HepG2, c 1.00 μM, three replicates): 3.46% and 5.11%
cell inhibition (HepG2 (hepatoma cancer); HepG2, c 2.00 μM, three replicates): 7.29% and 7.31%
cell inhibition (HepG2 (hepatoma cancer); HepG2, c 4.00 μM, three replicates): 9.34% and 11.19%
cell inhibition (HepG2 (hepatoma cancer); HepG2, c 8.00 μM, three replicates): 16.9% and 15.77%
cell inhibition (HepG2 (hepatoma cancer); HepG2, c 16.00 μM, three replicates): 25.3% and 27.11%
cell inhibition (HepG2 (hepatoma cancer); HepG2, c 32.00 μM, three replicates): 44.75% and 45.2%
cell inhibition (HepG2 (hepatoma cancer); HepG2, c 64.00 μM, three replicates): 77.47% and 75.51%
cell inhibition (HepG2 (hepatoma cancer); HepG2, c 128.00 μM, three replicates): 83.13% and 82.98%
inhibition at 1 µM (HepG2 (hepatoma cancer); Homo sapiens, HepG2, HepG2, c 1.00 μM, three replicates, read-out: cell inhibition): 3.33%
inhibition at 2 µM (HepG2 (hepatoma cancer); Homo sapiens, HepG2, HepG2, c 2.00 μM, three replicates, read-out: cell inhibition): 7.36%
inhibition at 4 µM (HepG2 (hepatoma cancer); Homo sapiens, HepG2, HepG2, c 4.00 μM, three replicates, read-out: cell inhibition): 9.89%
inhibition at 8 µM (HepG2 (hepatoma cancer); Homo sapiens, HepG2, HepG2, c 8.00 μM, three replicates, read-out: cell inhibition): 16.4%
inhibition at 16 µM (HepG2 (hepatoma cancer); Homo sapiens, HepG2, HepG2, c 16.00 μM, three replicates, read-out: cell inhibition): 27.6%
inhibition at 32 µM (HepG2 (hepatoma cancer); Homo sapiens, HepG2, HepG2, c 32.00 μM, three replicates, read-out: cell inhibition): 46.2%
inhibition at 64 µM (HepG2 (hepatoma cancer); Homo sapiens, HepG2, HepG2, c 64.00 μM, three replicates, read-out: cell inhibition): 77.2%
inhibition at 128 µM (HepG2 (hepatoma cancer); Homo sapiens, HepG2, HepG2, c 128.00 μM, three replicates, read-out: cell inhibition): 81.1%
IC50 (HepG2 (hepatoma cancer); Homo sapiens, HepG2, MTT, 72 h, mean ± SD (n = 3)): > 40 µM
